Test results from ChEMBL document CHEMBL3244430, “Antitumor agents. 31. Helenalin sym-dimethylethylenediamine reaction products and related derivatives” (J Med Chem, 1978).

Experiments:
[1] = Cytotoxicity against human Hep2 cells assessed as growth inhibition by microtiter method; type: functional; conditions: HEp-2, read-out: ED50 (the source's name)
P388 [2] = assay: Antitumor activity against mouse P388 cells allografted in DBA/2 mouse assessed as survival rate at 48 mg/kg relative to control; type: functional
W256 = assay: Antitumor activity against rat Walker 256 cells allografted in Sprague-Dawley rat assessed as survival rate at 2.5 mg/kg relative to control; type: functional
P388 [3] = assay: Antitumor activity against mouse P388 cells allografted in DBA/2 mouse assessed as survival rate at 25 mg/kg relative to control; type: functional
P388 [4] = assay: Antitumor activity against mouse P388 cells allografted in DBA/2 mouse assessed as survival rate at 10 mg/kg relative to control; type: functional
P388 [5] = assay: Antitumor activity against mouse P388 cells allografted in DBA/2 mouse assessed as survival rate at 4 mg/kg relative to control; type: functional
[6] = Toxicity in DBA/2 mouse allografted with mouse P388 cells assessed as mortality after 4 days; type: organism-based; conditions: read-out: MNTD
[7] = Toxicity in Sprague-Dawley rat allografted with rat Walker 256 cells assessed as mortality after 4 days; type: organism-based; conditions: read-out: MNTD
P388 [8] = assay: Antitumor activity against mouse P388 cells allografted in DBA/2 mouse assessed as survival rate at 16.8 mg/kg relative to control; type: functional

Row | Structure (SMILES) | EC50 [1] [µg/mL] | T/C (W256) [%] | T/C (P388 [3]) [%] | further results
1 | C[C@@H]1C[C@H]2OC(=O)[C@@H](C)[C@H]2[C@H](O)[C@]2(C)C(=O)C=C[C@@H]12 | 0.81 | 207 | – | T/C (P388 [2]): 138%
2 | C[C@@H]1C[C@H]2OC(=O)C(CN(C)C)[C@H]2[C@H](O)[C@]2(C)C(=O)C=C[C@@H]12 (some centres undefined) | 0.6 | – | 130 | –
3 | C[C@@H]1C[C@@H](O)[C@@H]([C@H]2CN(C)CCN(C)C2=O)[C@H](O)[C@]2(C)C(=O)C=C[C@@H]12 | 1.87 | 170 | 126 | –
4 | CC(=O)O[C@H]1[C@H](C2CN(C)CCN(C)C2=O)[C@H](O)C[C@@H](C)[C@@H]2C=CC(=O)[C@]21C (some centres undefined) | 4.96 | – | 100 | –
5 | CC(=O)O[C@H]1[C@H](C2CN(C)CCN(C)C2=O)[C@H](OC(=O)/C=C/c2ccccc2)C[C@@H](C)[C@@H]2C=CC(=O)[C@]21C (some centres undefined) | 0.84 | – | 102 | –
6 | C[C@@H]1C[C@@H](OC(=O)/C=C/c2ccccc2)[C@@H](C2CN(C)CCN(C)C2=O)[C@H](O)[C@]2(C)C(=O)C=C[C@@H]12 (some centres undefined) | 2.89 | – | – | T/C (P388 [4]): 123%
7 | C[C@@H]1C[C@@H](OC(=O)/C=C/c2ccccc2)[C@@H](C2CN(C)CCN(C)C2=O)[C@H](OC(=O)/C=C/c2ccccc2)[C@]2(C)C(=O)C=C[C@@H]12 (some centres undefined) | 0.75 | 288 | – | T/C (P388 [4]): 100%
8 | C[C@@H]1C[C@H]2OC(=O)C(CN(C)C)[C@H]2[C@H](O)[C@]2(C)C(=O)CC(N(C)C)[C@@H]12 (some centres undefined) | 0.85 | 136 | – | T/C (P388 [4]): 102%
9 | C=C1C(=O)O[C@@H]2C[C@@H](C)[C@@H]3C=CC(=O)[C@@]3(C)[C@@H](OC(=O)/C=C/c3ccccc3)[C@H]12 | 0.04 | 157 | – | T/C (P388 [5]): 123%
10 | C[C@@H]1C[C@H]2OC(=O)C(CN(C)C)[C@H]2[C@H](O)[C@]2(C)C(O)CC[C@@H]12 (some centres undefined) | 3.69 | – | – | –
11 | C=C1C(=O)O[C@@H]2C[C@@H](C)[C@@H]3C=CC(=O)[C@@]3(C)[C@@H](OC(C)=O)[C@H]12 [ANGUSTIBALIN] | 0.29 | – | 78 | –
12 | O=c1[nH]cc(F)c(=O)[nH]1 [FLUOROURACIL] | – | – | 186 | –
13 | C=C1C(=O)O[C@@H]2C[C@@H](C)[C@@H]3C=CC(=O)[C@@]3(C)[C@@H](O)[C@H]12 [HELENALIN] | 0.08 | 316 | – | MTD at 96 h [6]: 16.8 mg/kg; MTD at 96 h [7]: 2.5 mg/kg; T/C (P388 [8]): 127%
14 | N[C@@H](Cc1ccc(N(CCCl)CCCl)cc1)C(=O)O [MELPHALAN] | – | 317 | 168 | –
